Converted amounts (≈) assume the structure as drawn. Like-named read-outs stand apart in the source and are kept apart here.
Assays:
E. coli GC 2236 = assay: MIC, broth microdilution; conditions: Escherichia coli
E. coli GC 2231 = assay: MIC, broth microdilution; conditions: Escherichia coli
E. coli GC 2232 = assay: MIC, broth microdilution; conditions: Escherichia coli
E. coli GC 2272 = assay: MIC, broth microdilution; conditions: Escherichia coli
P. aeruginosa GC 2214 = assay: MIC, broth microdilution; conditions: Pseudomonas aeruginosa
S. aureus GC 1131 = assay: MIC, broth microdilution; conditions: Staphylococcus aureus
S. aureus GC 4536 = assay: MIC, broth microdilution; conditions: Staphylococcus aureus
S. aureus GC 2216 = assay: MIC, broth microdilution; conditions: Staphylococcus aureus
S. epidermidis GC 4935 = assay: MIC, broth microdilution; conditions: Staphylococcus epidermidis
E. faecalis GC 4555 = assay: MIC, broth microdilution; conditions: Enterococcus faecalis
E. faecalis GC 2265 = assay: MIC, broth microdilution; conditions: Enterococcus faecalis
E. faecalis GC 2267 = assay: MIC, broth microdilution; conditions: Enterococcus faecalis
E. faecalis GC 2242 = assay: MIC, broth microdilution; conditions: Enterococcus faecalis
E. faecium GC 2243 = assay: MIC, broth microdilution; conditions: Enterococcus faecium
S. pneumoniae* GC 4465 = assay: MIC, broth microdilution; conditions: Streptococcus pneumoniae
S. pneumoniae+ GC 4465 = assay: MIC, broth microdilution; conditions: Streptococcus pneumoniae
Method: Antimicrobial susceptibility testing. The in vitro activities of the antibiotics are determined by the broth microdilution method as recommended by the National Committee for Clinical Laboratory Standards (NCCLS) (1). Mueller-Hinton II broth (MHBII)(BBL Cockeysville, Md.) is the medium employed in the testing procedures. Microtiter plates containing serial dilutions of each antimicrobial agent are inoculated with each organism to yield the appropriate density (10^5 CFU/ml) in a 100 μl final volume. The plates are incubated for 18-22 hours at 35° C. in ambient air.
Representative compounds were first incubated in mouse serum for an hour prior to the in vitro testing against a panel of selected gram-positive and gram-negative bacteria strains. All compounds were also pre-incubated in water for an hour prior to testing as control.

c. albicans GC 3066 = assay: MIC, broth microdilution
E. coli = assay: Range of MIC for E. coli strains; conditions: Escherichia coli
Staph. = assay: Range of MIC for Staph. strains, including MRSA; conditions: Staphylococcus aureus
Staph. aureus Smith = assay: In vivo activity (oral, iv; ED50) against Staph. aureus Smith in mice
Method: Representative examples of compounds of Formula I were tested for the oral efficacy using S. aureus Smith in mice.

[1] = read-out: MINIMAL INHIBITORY CONCENTRATION MIC, Human Serum
[2] = read-out: MINIMAL INHIBITORY CONCENTRATION MIC, Mouse Serum
[3] = read-out: MINIMAL INHIBITORY CONCENTRATION MIC, Water

What does the source list for CN(C)c1cc(NC(=O)CN(C(=O)OCOC(=O)c2ccc(F)cc2)C(C)(C)C)c(O)c2c1C[C@H]1C[C@H]3[C@H](N(C)C)C(O)=C(C(N)=O)C(=O)[C@@]3(O)C(O)=C1C2=O [Example 52, ({[(2-{[(5aR,6aS,7S,10aS)-9-(aminocarbonyl)-4,7-bis(dimethylamino)-1,8,10a,11-tetrahydroxy-10,12-dioxo-5,5a,6,6a,7,10,10a,12-octahydrotetracen-2-yl]amino}-2-oxoethyl)(tert-butyl)amino]carbonyl}oxy)methyl 4-fluorobenzoate]?
MIC (E. coli GC 2236; GC2236, read-out: MINIMAL INHIBITORY CONCENTRATION MIC, Human Serum): 8 µg/mL (≈ 10.2 µM); MIC (E. coli GC 2236; GC2236, read-out: MINIMAL INHIBITORY CONCENTRATION MIC, Mouse Serum): 1 µg/mL (≈ 1.28 µM); MIC (E. coli GC 2236; GC2236, read-out: MINIMAL INHIBITORY CONCENTRATION MIC, Water): 8 µg/mL (≈ 10.2 µM); MIC (E. coli GC 2231; GC2231, read-out: MINIMAL INHIBITORY CONCENTRATION MIC, Human Serum): 8 µg/mL (≈ 10.2 µM); MIC (E. coli GC 2231; GC2231, read-out: MINIMAL INHIBITORY CONCENTRATION MIC, Mouse Serum): 1 µg/mL (≈ 1.28 µM); MIC (E. coli GC 2231; GC2231, read-out: MINIMAL INHIBITORY CONCENTRATION MIC, Water): 16 µg/mL (≈ 20.5 µM); MIC (E. coli GC 2232; GC2232, read-out: MINIMAL INHIBITORY CONCENTRATION MIC, Human Serum): 4 µg/mL (≈ 5.12 µM); MIC (E. coli GC 2232; GC2232, read-out: MINIMAL INHIBITORY CONCENTRATION MIC, Mouse Serum): 0.5 µg/mL (≈ 0.64 µM); MIC (E. coli GC 2232; GC2232, read-out: MINIMAL INHIBITORY CONCENTRATION MIC, Water): 8 µg/mL (≈ 10.2 µM); MIC (E. coli GC 2272; GC2272, read-out: MINIMAL INHIBITORY CONCENTRATION MIC, Human Serum): 4 µg/mL (≈ 5.12 µM); MIC (E. coli GC 2272; GC2272, read-out: MINIMAL INHIBITORY CONCENTRATION MIC, Mouse Serum): 0.5 µg/mL (≈ 0.64 µM); MIC (E. coli GC 2272; GC2272, read-out: MINIMAL INHIBITORY CONCENTRATION MIC, Water): 4 µg/mL (≈ 5.12 µM); MIC (P. aeruginosa GC 2214; GC2214, read-out: MINIMAL INHIBITORY CONCENTRATION MIC, Human Serum): > 64 µg/mL; MIC (P. aeruginosa GC 2214; GC2214, read-out: MINIMAL INHIBITORY CONCENTRATION MIC, Mouse Serum): 64 µg/mL (≈ 81.9 µM); MIC (P. aeruginosa GC 2214; GC2214, read-out: MINIMAL INHIBITORY CONCENTRATION MIC, Water): > 64 µg/mL; MIC (S. aureus GC 1131; GC1131, read-out: MINIMAL INHIBITORY CONCENTRATION MIC, Human Serum): 1 µg/mL (≈ 1.28 µM); MIC (S. aureus GC 1131; GC1131, read-out: MINIMAL INHIBITORY CONCENTRATION MIC, Mouse Serum): 0.5 µg/mL (≈ 0.64 µM); MIC (S. aureus GC 1131; GC1131, read-out: MINIMAL INHIBITORY CONCENTRATION MIC, Water): 2 µg/mL (≈ 2.56 µM); MIC (S. aureus GC 4536; GC4536, read-out: MINIMAL INHIBITORY CONCENTRATION MIC, Human Serum): 0.5 µg/mL (≈ 0.64 µM); MIC (S. aureus GC 4536; GC4536, read-out: MINIMAL INHIBITORY CONCENTRATION MIC, Mouse Serum): 0.5 µg/mL (≈ 0.64 µM); MIC (S. aureus GC 4536; GC4536, read-out: MINIMAL INHIBITORY CONCENTRATION MIC, Water): 2 µg/mL (≈ 2.56 µM); MIC (S. aureus GC 2216; GC2216, read-out: MINIMAL INHIBITORY CONCENTRATION MIC, Human Serum): 1 µg/mL (≈ 1.28 µM); MIC (S. aureus GC 2216; GC2216, read-out: MINIMAL INHIBITORY CONCENTRATION MIC, Mouse Serum): 0.5 µg/mL (≈ 0.64 µM); MIC (S. aureus GC 2216; GC2216, read-out: MINIMAL INHIBITORY CONCENTRATION MIC, Water): 4 µg/mL (≈ 5.12 µM); MIC (S. epidermidis GC 4935; GC4935, read-out: MINIMAL INHIBITORY CONCENTRATION MIC, Human Serum): 4 µg/mL (≈ 5.12 µM); MIC (S. epidermidis GC 4935; GC4935, read-out: MINIMAL INHIBITORY CONCENTRATION MIC, Mouse Serum): 1 µg/mL (≈ 1.28 µM); MIC (S. epidermidis GC 4935; GC4935, read-out: MINIMAL INHIBITORY CONCENTRATION MIC, Water): 4 µg/mL (≈ 5.12 µM); MIC (E. faecalis GC 4555; GC4555, read-out: MINIMAL INHIBITORY CONCENTRATION MIC, Human Serum): 2 µg/mL (≈ 2.56 µM); MIC (E. faecalis GC 4555; GC4555, read-out: MINIMAL INHIBITORY CONCENTRATION MIC, Mouse Serum): 0.5 µg/mL (≈ 0.64 µM); MIC (E. faecalis GC 4555; GC4555, read-out: MINIMAL INHIBITORY CONCENTRATION MIC, Water): 4 µg/mL (≈ 5.12 µM); MIC (E. faecalis GC 2265; GC2265, read-out: MINIMAL INHIBITORY CONCENTRATION MIC, Human Serum): 4 µg/mL (≈ 5.12 µM); MIC (E. faecalis GC 2265; GC2265, read-out: MINIMAL INHIBITORY CONCENTRATION MIC, Mouse Serum): 1 µg/mL (≈ 1.28 µM); MIC (E. faecalis GC 2265; GC2265, read-out: MINIMAL INHIBITORY CONCENTRATION MIC, Water): 4 µg/mL (≈ 5.12 µM); MIC (E. faecalis GC 2267; GC2267, read-out: MINIMAL INHIBITORY CONCENTRATION MIC, Human Serum): 4 µg/mL (≈ 5.12 µM); MIC (E. faecalis GC 2267; GC2267, read-out: MINIMAL INHIBITORY CONCENTRATION MIC, Mouse Serum): 0.5 µg/mL (≈ 0.64 µM); MIC (E. faecalis GC 2267; GC2267, read-out: MINIMAL INHIBITORY CONCENTRATION MIC, Water): 4 µg/mL (≈ 5.12 µM); MIC (E. faecalis GC 2242; GC2242, read-out: MINIMAL INHIBITORY CONCENTRATION MIC, Human Serum): 4 µg/mL (≈ 5.12 µM); MIC (E. faecalis GC 2242; GC2242, read-out: MINIMAL INHIBITORY CONCENTRATION MIC, Mouse Serum): 0.5 µg/mL (≈ 0.64 µM); MIC (E. faecalis GC 2242; GC2242, read-out: MINIMAL INHIBITORY CONCENTRATION MIC, Water): 4 µg/mL (≈ 5.12 µM); MIC (E. faecium GC 2243; GC2243, read-out: MINIMAL INHIBITORY CONCENTRATION MIC, Human Serum): 1 µg/mL (≈ 1.28 µM); MIC (E. faecium GC 2243; GC2243, read-out: MINIMAL INHIBITORY CONCENTRATION MIC, Mouse Serum): 0.25 µg/mL (≈ 0.32 µM); MIC (E. faecium GC 2243; GC2243, read-out: MINIMAL INHIBITORY CONCENTRATION MIC, Water): 1 µg/mL (≈ 1.28 µM); MIC (S. pneumoniae* GC 4465; [1]): 0.25 µg/mL (≈ 0.32 µM); MIC (S. pneumoniae* GC 4465; [2]): < 0.06 µg/mL; MIC (S. pneumoniae* GC 4465; [3]): 0.12 µg/mL (≈ 0.153 µM); MIC (S. pneumoniae+ GC 4465; [1]): 4 µg/mL (≈ 5.12 µM); MIC (S. pneumoniae+ GC 4465; [2]): 1 µg/mL (≈ 1.28 µM); MIC (S. pneumoniae+ GC 4465; [3]): 2 µg/mL (≈ 2.56 µM); MIC (c. albicans GC 3066; Candida albicans, GC3066, read-out: MINIMAL INHIBITORY CONCENTRATION MIC): > 64 µg/mL; MINIMAL INHIBITORY CONCENTRATION MIC (c. albicans GC 3066; Human Serum): >64 UG/ML; MINIMAL INHIBITORY CONCENTRATION MIC (c. albicans GC 3066; Mouse Serum): >64 UG/ML; MIC (E. coli; 20 h, read-out: Range of MIC, E. coli (Mouse Serum)): 0.5 to 1 µg/mL (≈ 0.64 to 1.28 µM); MIC (E. coli; read-out: Minimum inhibitory concentration (MIC), E. coli (Human Serum)): 4 to 16 µg/mL (≈ 5.12 to 20.5 µM); MIC (E. coli; read-out: Minimum inhibitory concentration (MIC), E. coli (water)): 4 to 16 µg/mL (≈ 5.12 to 20.5 µM); MIC (E. coli; read-out: Range of MIC, E. coli (Water)): 4 to 16 µg/mL (≈ 5.12 to 20.5 µM); MIC (Staph.; MRSA, read-out: Range of MIC, Staph (Mouse Serum)): 0.5 to 1 µg/mL (≈ 0.64 to 1.28 µM); MIC (Staph.; MRSA, read-out: Range of MIC, Staph (Water)): 2 to 4 µg/mL (≈ 2.56 to 5.12 µM); MIC (Staph.; read-out: Minimum inhibitory concentration (MIC), Staph (Human Serum)): 0.5 to 4 µg/mL (≈ 0.64 to 5.12 µM); MIC (Staph.; read-out: Minimum inhibitory concentration (MIC), Staph (Water)): 2 to 4 µg/mL (≈ 2.56 to 5.12 µM); ED50 (Staph. aureus Smith; Staphylococcus aureus, in Mus musculus, iv, read-out: ED50 SIV (Staph aureus Smith)): 1.29 mg/kg; ED50 (Staph. aureus Smith; Staphylococcus aureus, in Mus musculus, po, read-out: ED50 SOD (Staph aureus Smith)): 10.7 mg/kg; ED50 (Staph. aureus Smith; Staphylococcus aureus, in Mus musculus, po, read-out: ED50 Staph Smith SOD): 10.7 mg/kg; ED50 (Staph. aureus Smith; iv, read-out: ED50 Staph Smith SIV): 1.29 mg/kg
